The text below walks through data of ChEMBL document CHEMBL4619730, “Hypolipidemic constituents from the aerial portion of Sibiraea angustata” (Bioorg Med Chem Lett, 2020).

Activity calls are given as the source filed them. No cut-off for these calls is given here.

Common to all, as to format: functional, cell-based
The subject of test [1] is HepG2. Put plainly: Hypolipidemic activity in human HepG2 cells assessed as inhibition of oleic acid-induced lipid accumulation at 10 uM.
Test [2] deals with HepG2. The experiment in a line: Hypolipidemic activity against oleic acid-induced lipid accumulation in human HepG2 cell model assessed as decrease in phosphatidylcholine (18:2/18:2) level at 10 uM by UPLC-QTOF-MS analysis.
The subject of test [3] is HepG2. The experiment in a line: Downregulation of SREBF1 mRNA expression in human HepG2 cells at 10 uM by qRT-PCR analysis.
Test [4] has as its system HepG2. The experiment in a line: Hypolipidemic activity against oleic acid-induced lipid accumulation in human HepG2 cell model assessed as decrease in diglycerides (20:4/18:2/0:0) level at 10 uM by UPLC-QTOF-MS analysis.
The subject of test [5] is HepG2. The experiment in a line: Hypolipidemic activity against oleic acid-induced lipid accumulation in human HepG2 cell model assessed as decrease in triglycerides (16:0/14:0/20:5) level at 10 uM by UPLC-QTOF-MS analysis.
Test [6] has as its system HepG2. Put plainly: Hypolipidemic activity against oleic acid-induced lipid accumulation in human HepG2 cell model assessed as decrease in diglycerides (20:5/16:0/0:0) level at 10 uM by UPLC-QTOF-MS analysis.
In test [7] the test system is HepG2. The experiment in a line: Hypolipidemic activity against oleic acid-induced lipid accumulation in human HepG2 cell model assessed as decrease in phosphatidylcholine (O-16:0/20:5) level at 10 uM by UPLC-QTOF-MS analysis.
The subject of test [8] is HepG2. The experiment in a line: Hypolipidemic activity against oleic acid-induced lipid accumulation in human HepG2 cell model assessed as decrease in diglycerides (18:2/20:5/0:0) level at 10 uM by UPLC-QTOF-MS analysis.
The test system of test [9] is HepG2. The experiment in a line: Hypolipidemic activity against oleic acid-induced lipid accumulation in human HepG2 cell model assessed as decrease in triglycerides (18:1/18:3/18:1) level at 10 uM by UPLC-QTOF-MS analysis.
For test [10], the system named is HepG2. Put plainly: Downregulation of FASN mRNA expression in human HepG2 cells at 10 uM by qRT-PCR analysis.
Test [11] relates to HepG2. Put plainly: Hypolipidemic activity against oleic acid-induced lipid accumulation in human HepG2 cell model assessed as decrease in diglycerides (20:1/0:0/20:4) level at 10 uM by UPLC-QTOF-MS analysis.
The test system of test [12] is HepG2. The experiment in a line: Hypolipidemic activity against oleic acid-induced lipid accumulation in human HepG2 cell model assessed as decrease in triglycerides (16:0/16:0/18:3) level at 10 uM by UPLC-QTOF-MS analysis.
For test [13], the system named is HepG2. Put plainly: Downregulation of HMGCR mRNA expression in human HepG2 cells at 10 uM by qRT-PCR analysis. A general note: In qPCR the cycle at which signal appears reflects the starting amount.
The subject of test [14] is HepG2. Put plainly: Hypolipidemic activity against oleic acid-induced lipid accumulation in human HepG2 cell model assessed as decrease in 1acyl-sn-glycero-3phosphocholines (18:2/0:0) level at 10 uM by UPLC-QTOF-MS analysis.
The test system of test [15] is HepG2. Put plainly: Hypolipidemic activity against oleic acid-induced lipid accumulation in human HepG2 cell model assessed as decrease in triglycerides (18:1/16:0/20:5) level at 10 uM by UPLC-QTOF-MS analysis.

On to `CC(C)=C[C@H]1C/C(=C\CO[C@H]2O[C@@H](COC(=O)/C=C/c3ccc(O)cc3)[C@H](O)[C@@H](O)[C@@H]2O)C(=O)O1`, for which, in the test with HepG2 [1], the outcome was inactive.
As to `CC(C)=C[C@@H]1C/C(=C\CO[C@H]2O[C@@H](COC(=O)/C=C/c3ccc(O)cc3)[C@H](O)[C@@H](O)[C@@H]2O)C(=O)O1`, the outcome with HepG2 [1] was Active.
As to `COc1ccc(/C=C/C(=O)OC[C@@H]2O[C@H](OC/C=C3\C[C@@H](C=C(C)C)OC3=O)[C@@H](O)[C@H](O)[C@H]2O)cc1O`, the result in the test with HepG2 [2], with HepG2 [4], with HepG2 [5], in the test with HepG2 [6], with HepG2 [7] and with HepG2 [8] was Active. In addition, the outcome in the test on HepG2 [1], in the test on HepG2 [9], in the test on HepG2 [11], with HepG2 [12], in the test with HepG2 [14] and in the test on HepG2 [15] was Active. The inhibition entry in the test with HepG2 [3] and in the test on HepG2 [13] was “inactive” throughout. In addition, in the test on HepG2 [10], the inhibition result was “Active”.
As to `CC(C)=CC(=O)/C=C(/C)CCO[C@H]1O[C@@H](COC(=O)/C=C/c2ccc(O)c(O)c2)[C@H](O)[C@@H](O)[C@@H]1O`, the result in the test with HepG2 [1] was Active.
On the same count and under the same terms, in the case of `COC(=O)/C=C/c1ccc(O)c(OC)c1` it was “inactive”.
For the molecule `COc1ccc(/C=C/C(=O)OC[C@@H]2O[C@H](OC/C=C3\C[C@H](C=C(C)C)OC3=O)[C@@H](O)[C@H](O)[C@H]2O)cc1O`, in the test with HepG2 [1], the result was Active.
Same read-out and setting: the same measure for `CC(C)=CC(=O)/C=C(\C)CCO[C@H]1O[C@@H](COC(=O)/C=C/c2ccc(O)c(O)c2)[C@H](O)[C@@H](O)[C@@H]1O`: “Active”.
